Source: patent US12077503B2, “Substituted cyclic amides and their use as herbicides” (FMC CORPORATION, priority 2015, dated 2024)

Columns and labels:
Type in all cases: in vivo
[1] = test system: barnyardgrass (Echinochloa crus-galli); experiment: Test G Pre-Emergence Protocol; settings: Echinochloa crus-galli, pre-emergence, 312 h, evaluated after 13 days; for pest or weed control at 15.625 g/ha: 15.625 g ai/ha, read-out: Barnyard grass damage rating (100=total damage to plant; 0=no damage to plant); for pest or weed control at 62.5 g/ha: 62.5 g ai/ha, 100=total damage to plant, 0=no damage to plant, read-out: plant damage rating, Barnyardgrass; for pest or weed control at 250 g/ha: 250 g ai/ha, read-out: Barnyardgrass damage rating (100=total damage to plant; 0=no damage to plant)
Outline: (§1)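 Herbicidal effect was rated 13 days post-application on a scale where 100 equals total damage. Spraying took place the day after sowing, using 15.625, 62.5 or 250 g/ha of compound in a 50:50 acetone/water solution with 0.5% Tween 20.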

corn (Zea mays) [2] = experiment: Test G Pre-Emergence Protocol; settings: Zea mays, pre-emergence, 312 h, evaluated after 13 days; for plant injury at 15.625 g/ha: 15.625 g ai/ha; for plant injury at 15.625 g/ha / plant injury at 250 g/ha: read-out: Corn damage rating (100=total damage to plant; 0=no damage to plant); for plant injury at 62.5 g/ha: 62.5 g ai/ha, 100=total damage to plant, 0=no damage to plant, read-out: plant damage rating, Corn; for plant injury at 250 g/ha: 250 g ai/ha
Outline: as §1

[3] = test system: giant foxtail (Setaria faberi); experiment: Test G Pre-Emergence Protocol; settings: Setaria faberi, pre-emergence, 312 h, evaluated after 13 days; for pest or weed control at 15.625 g/ha: 15.625 g ai/ha; for pest or weed control at 15.625 g/ha / pest or weed control at 250 g/ha: read-out: Foxtail, Giant damage rating (100=total damage to plant; 0=no damage to plant); for pest or weed control at 62.5 g/ha: 62.5 g ai/ha, 100=total damage to plant, 0=no damage to plant, read-out: plant damage rating, Foxtail, Giant; for pest or weed control at 250 g/ha: 250 g ai/ha
Outline: as §1

[4] = test system: ivy-leaved morning glory (Ipomoea hederacea); experiment: Test G Pre-Emergence Protocol; settings: Ipomoea, pre-emergence, 312 h, evaluated after 13 days; for pest or weed control at 15.625 g/ha: 15.625 g ai/ha, read-out: Morning-glory, Ivy-leaved damage rating (100=total damage to plant; 0=no damage to plant); for pest or weed control at 62.5 g/ha: 62.5 g ai/ha, 100=total damage to plant, 0=no damage to plant, read-out: plant damage rating, Morningglory, Ivy-leaved; for pest or weed control at 250 g/ha: 250 g ai/ha, read-out: Morningglory, Ivy-leaved damage rating (100=total damage to plant; 0=no damage to plant)
Outline: as §1

[5] = test system: redroot pigweed (Amaranthus retroflexus); experiment: Test G Pre-Emergence Protocol; settings: Amaranthus retroflexus, pre-emergence, 312 h, evaluated after 13 days; for pest or weed control at 15.625 g/ha: 15.625 g ai/ha; for pest or weed control at 15.625 g/ha / pest or weed control at 250 g/ha: read-out: Pigweed, Redroot damage rating (100=total damage to plant; 0=no damage to plant); for pest or weed control at 62.5 g/ha: 62.5 g ai/ha, 100=total damage to plant, 0=no damage to plant, read-out: plant damage rating, Pigweed, Redroot; for pest or weed control at 250 g/ha: 250 g ai/ha
Outline: as §1

[6] = test system: velvetleaf (Abutilon theophrasti); experiment: Test G Pre-Emergence Protocol; settings: Abutilon theophrasti, pre-emergence, 312 h, evaluated after 13 days; for pest or weed control at 15.625 g/ha: 15.625 g ai/ha; for pest or weed control at 15.625 g/ha / pest or weed control at 250 g/ha: read-out: Velvetleaf damage rating (100=total damage to plant; 0=no damage to plant); for pest or weed control at 62.5 g/ha: 62.5 g ai/ha, 100=total damage to plant, 0=no damage to plant, read-out: plant damage rating, Velvetleaf; for pest or weed control at 250 g/ha: 250 g ai/ha
Outline: as §1

[7] = test system: barnyardgrass (Echinochloa crus-galli); experiment: Test G Post-Emergence Protocol; settings: Echinochloa crus-galli, post-emergence, 312 h; for pest or weed control at 15.625 g/ha: 15.625 g ai/ha, evaluated after 13 days (100=total damage to plant; 0=no damage to plant), read-out: Barnyardgrass damage rating; for pest or weed control at 62.5 g/ha: 62.5 g ai/ha, read-out: Barnyardgrass damage rating (100=total damage to plant; 0=no damage to plant); for pest or weed control at 62.5 g/ha / pest or weed control at 250 g/ha: evaluated after 13 days; for pest or weed control at 250 g/ha: 250 g ai/ha, read-out: damage to plant, Barnyardgrass (100=total damage to plant; 0=no damage to plant)
Outline: (§2)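 Damage was rated 13 days after treatment from 0 (none) to 100 (plant killed). Compound was applied as a spray at 15.625, 62.5 or 250 g/ha in 50:50 acetone/water containing 0.5% Tween 20, onto 8-day-old potted plants kept in a glasshouse (24/16 °C, 14 h light, 65% humidity).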

corn (Zea mays) [8] = experiment: Test G Post-Emergence Protocol; settings: Zea mays, post-emergence, 312 h; for plant injury at 15.625 g/ha: 15.625 g ai/ha, evaluated after 13 days (100=total damage to plant; 0=no damage to plant), read-out: Corn damage rating; for plant injury at 62.5 g/ha: 62.5 g ai/ha, read-out: Corn damage rating (100=total damage to plant; 0=no damage to plant); for plant injury at 62.5 g/ha / plant injury at 250 g/ha: evaluated after 13 days; for plant injury at 250 g/ha: 250 g ai/ha, read-out: damage to plant, Corn (100=total damage to plant; 0=no damage to plant)
Outline: as §2

[9] = test system: giant foxtail (Setaria faberi); experiment: Test G Post-Emergence Protocol; settings: Setaria faberi, post-emergence, 312 h; for pest or weed control at 15.625 g/ha: 15.625 g ai/ha, evaluated after 13 days (100=total damage to plant; 0=no damage to plant), read-out: Foxtail, Giant damage rating; for pest or weed control at 62.5 g/ha: 62.5 g ai/ha, read-out: Foxtail, Giant damage rating (100=total damage to plant; 0=no damage to plant); for pest or weed control at 62.5 g/ha / pest or weed control at 250 g/ha: evaluated after 13 days; for pest or weed control at 250 g/ha: 250 g ai/ha, read-out: damage to plant, Foxtail, Giant (100=total damage to plant; 0=no damage to plant)
Outline: as §2

[10] = test system: ivy-leaved morning glory (Ipomoea hederacea); experiment: Test G Post-Emergence Protocol; settings: Ipomoea, post-emergence, 312 h; for pest or weed control at 15.625 g/ha: 15.625 g ai/ha, evaluated after 13 days (100=total damage to plant; 0=no damage to plant), read-out: Morningglory, Ivy-leaved damage rating; for pest or weed control at 62.5 g/ha: 62.5 g ai/ha, read-out: Morningglory, Ivy-leaved damage rating (100=total damage to plant; 0=no damage to plant); for pest or weed control at 62.5 g/ha / pest or weed control at 250 g/ha: evaluated after 13 days; for pest or weed control at 250 g/ha: 250 g ai/ha, read-out: damage to plant, Morningglory, Ivy-leaved (100=total damage to plant; 0=no damage to plant)
Outline: as §2

[11] = test system: redroot pigweed (Amaranthus retroflexus); experiment: Test G Post-Emergence Protocol; settings: Amaranthus retroflexus, post-emergence, 312 h; for pest or weed control at 15.625 g/ha: 15.625 g ai/ha, evaluated after 13 days (100=total damage to plant; 0=no damage to plant), read-out: Pigweed, Redroot damage rating; for pest or weed control at 62.5 g/ha: 62.5 g ai/ha, read-out: Pigweed, Redroot damage rating (100=total damage to plant; 0=no damage to plant); for pest or weed control at 62.5 g/ha / pest or weed control at 250 g/ha: evaluated after 13 days; for pest or weed control at 250 g/ha: 250 g ai/ha, read-out: damage to plant, Pigweed, Redroot (100=total damage to plant; 0=no damage to plant)
Outline: as §2

[12] = test system: velvetleaf (Abutilon theophrasti); experiment: Test G Post-Emergence Protocol; settings: Abutilon theophrasti, post-emergence, 312 h; for pest or weed control at 15.625 g/ha: 15.625 g ai/ha, evaluated after 13 days (100=total damage to plant; 0=no damage to plant), read-out: Velvetleaf damage rating; for pest or weed control at 62.5 g/ha: 62.5 g ai/ha, read-out: Velvetleaf damage rating (100=total damage to plant; 0=no damage to plant); for pest or weed control at 62.5 g/ha / pest or weed control at 250 g/ha: evaluated after 13 days; for pest or weed control at 250 g/ha: 250 g ai/ha, read-out: damage to plant, Velvetleaf (100=total damage to plant; 0=no damage to plant)
Outline: as §2

SMILES | pest or weed control at 15.625 g/ha [1] [%] | pest or weed control at 62.5 g/ha [1] [%] | pest or weed control at 250 g/ha [1] [%] | plant injury at 15.625 g/ha (corn (Zea mays) [2]) [%] | plant injury at 62.5 g/ha (corn (Zea mays) [2]) [%] | plant injury at 250 g/ha (corn (Zea mays) [2]) [%] | pest or weed control at 15.625 g/ha [3] [%] | pest or weed control at 62.5 g/ha [3] [%] | pest or weed control at 250 g/ha [3] [%] | pest or weed control at 15.625 g/ha [4] [%] | pest or weed control at 62.5 g/ha [4] [%] | pest or weed control at 250 g/ha [4] [%] | pest or weed control at 15.625 g/ha [5] [%] | pest or weed control at 62.5 g/ha [5] [%] | pest or weed control at 250 g/ha [5] [%] | pest or weed control at 15.625 g/ha [6] [%] | pest or weed control at 62.5 g/ha [6] [%] | pest or weed control at 250 g/ha [6] [%] | pest or weed control at 15.625 g/ha [7] [%] | pest or weed control at 62.5 g/ha [7] [%] | other results
COc1ccc(CNC(=O)[C@H]2C(=O)N(C)C[C@@H]2c2ccc(C(F)(F)F)cc2)c(OC)c1 (racemic) [Compound 1479] | 0 | 0 | 10 | 0 | 0 | 0 | 0 | 20 | 20 | 0 | 0 | 0 | 0 | 0 | 0 | 0 | 0 | 10 | 0 | 20 | pest or weed control at 250 g/ha [7]: 20%; plant injury at 15.625 g/ha (corn (Zea mays) [8]): 10%; plant injury at 62.5 g/ha (corn (Zea mays) [8]): 10%; plant injury at 250 g/ha (corn (Zea mays) [8]): 10%; pest or weed control at 15.625 g/ha [9]: 0%; pest or weed control at 62.5 g/ha [9]: 20%; pest or weed control at 250 g/ha [9]: 0%; pest or weed control at 15.625 g/ha [10]: 0%; pest or weed control at 62.5 g/ha [10]: 0%; pest or weed control at 250 g/ha [10]: 0%; pest or weed control at 15.625 g/ha [11]: 0%; pest or weed control at 62.5 g/ha [11]: 0%; pest or weed control at 250 g/ha [11]: 20%; pest or weed control at 15.625 g/ha [12]: 0%; pest or weed control at 62.5 g/ha [12]: 0%; pest or weed control at 250 g/ha [12]: 0%
Cc1onc(NC(=O)[C@@H]2C(=O)N(C)C[C@H]2c2ccc(C(F)(F)F)cc2)c1Cl (racemic) [Compound 1580] | 0 | 0 | 0 | 0 | 0 | 0 | 0 | 0 | 0 | 0 | 0 | 0 | 0 | 0 | 0 | 0 | 0 | 0 | 0 | 0 | pest or weed control at 250 g/ha [7]: 0%; plant injury at 15.625 g/ha (corn (Zea mays) [8]): 0%; plant injury at 62.5 g/ha (corn (Zea mays) [8]): 0%; plant injury at 250 g/ha (corn (Zea mays) [8]): 0%; pest or weed control at 15.625 g/ha [9]: 0%; pest or weed control at 62.5 g/ha [9]: 0%; pest or weed control at 250 g/ha [9]: 0%; pest or weed control at 15.625 g/ha [10]: 0%; pest or weed control at 62.5 g/ha [10]: 0%; pest or weed control at 250 g/ha [10]: 0%; pest or weed control at 15.625 g/ha [11]: 0%; pest or weed control at 62.5 g/ha [11]: 0%; pest or weed control at 250 g/ha [11]: 0%; pest or weed control at 15.625 g/ha [12]: 0%; pest or weed control at 62.5 g/ha [12]: 0%; pest or weed control at 250 g/ha [12]: 0%
CN1C[C@@H](c2ccc(C(F)(F)F)cc2)[C@H](C(=O)Nc2cncnc2)C1=O (racemic) [Compound 1583] | 0 | 0 | 0 | 0 | 0 | 0 | 0 | 0 | 30 | 0 | 0 | 0 | 0 | 0 | 30 | 0 | 0 | 0 | 0 | 0 | pest or weed control at 250 g/ha [7]: 20%; plant injury at 15.625 g/ha (corn (Zea mays) [8]): 0%; plant injury at 62.5 g/ha (corn (Zea mays) [8]): 0%; plant injury at 250 g/ha (corn (Zea mays) [8]): 0%; pest or weed control at 15.625 g/ha [9]: 0%; pest or weed control at 62.5 g/ha [9]: 20%; pest or weed control at 250 g/ha [9]: 10%; pest or weed control at 15.625 g/ha [10]: 0%; pest or weed control at 62.5 g/ha [10]: 10%; pest or weed control at 250 g/ha [10]: 30%; pest or weed control at 15.625 g/ha [11]: 0%; pest or weed control at 62.5 g/ha [11]: 0%; pest or weed control at 250 g/ha [11]: 20%; pest or weed control at 15.625 g/ha [12]: 0%; pest or weed control at 62.5 g/ha [12]: 0%; pest or weed control at 250 g/ha [12]: 20%
